{"source": "ChEMBL document CHEMBL1201862", "about": "“PubChem BioAssay data set” (2004)", "assay_in_all_cases": "DTP human tumour cell line panel, 48 h", "key": {"[1]": {"tested_on": "K562"}, "[2]": {"tested_on": "KM12"}, "[3]": {"tested_on": "SK-MEL-28"}, "[4]": {"tested_on": "MOLT-4"}, "[5]": {"tested_on": "SW-620"}, "[6]": {"tested_on": "HCC 2998"}, "[7]": {"tested_on": "TK-10"}, "[8]": {"tested_on": "NCI-H23"}, "[9]": {"tested_on": "SNB-75"}, "[10]": {"tested_on": "SNB-19"}, "[11]": {"tested_on": "NCI-H460"}, "[12]": {"tested_on": "PC-3"}, "[13]": {"tested_on": "OVCAR-5"}, "[14]": {"tested_on": "MCF7"}, "[15]": {"tested_on": "786-0"}, "[16]": {"tested_on": "MDA-N"}, "[17]": {"tested_on": "M14"}, "[18]": {"tested_on": "UACC-257"}, "[19]": {"tested_on": "UACC-62"}, "[20]": {"tested_on": "NCI-H226"}, "[21]": {"tested_on": "SR"}, "[22]": {"tested_on": "HOP-62"}, "[23]": {"tested_on": "HCT-15"}, "[24]": {"tested_on": "UO-31"}, "[25]": {"tested_on": "HL-60"}, "[26]": {"tested_on": "Hs-578T"}, "[27]": {"tested_on": "ACHN"}, "[28]": {"tested_on": "HOP-92"}, "[29]": {"tested_on": "OVCAR-8"}, "[30]": {"tested_on": "A498"}, "[31]": {"tested_on": "RPMI-8226"}, "[32]": {"tested_on": "COLO 205"}, "[33]": {"tested_on": "HT-29"}, "[34]": {"tested_on": "BT-549"}, "[35]": {"tested_on": "SN12C"}, "[36]": {"tested_on": "HCT-116"}, "[37]": {"tested_on": "SK-MEL-5"}, "[38]": {"tested_on": "SK-MEL-2"}, "[39]": {"tested_on": "CCRF-CEM"}, "[40]": {"tested_on": "IGROV-1"}, "[41]": {"tested_on": "MDA-MB-231"}, "[42]": {"tested_on": "U-251"}, "[43]": {"tested_on": "EKVX"}, "[44]": {"tested_on": "A549"}, "[45]": {"tested_on": "Malme-3M"}, "[46]": {"tested_on": "NCI/ADR-RES"}, "[47]": {"tested_on": "MDA-MB-435"}, "[48]": {"tested_on": "LOX IMVI"}, "[49]": {"tested_on": "SF-295"}, "[50]": {"tested_on": "DU-145"}, "[51]": {"tested_on": "NCI-H522"}, "[52]": {"tested_on": "OVCAR-4"}, "[53]": {"tested_on": "OVCAR-3"}, "[54]": {"tested_on": "SF-539"}, "[55]": {"tested_on": "SF-268"}, "[56]": {"tested_on": "CAKI-1"}, "[57]": {"tested_on": "SK-OV-3"}}, "note": "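Cells were grown in 96-well plates and exposed to each compound for 48 hours at five concentrations; endpoints were interpolated linearly between bracketing concentrations, or set to the highest concentration if not reached. GI50 = concentration required for 50% inhibition of growth.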 The source made the active and inactive calls. Cut-off read from the data, not from the text of the source: active = GI50 up to about 1.1 µM and inactive = higher."}
{"smiles": "O=S(=O)(/N=C1/S/C(=N\\c2ccccc2)N(c2ccccc2)/C1=N/S(=O)(=O)c1ccccc1)c1ccccc1", "values": [{"measurement": "GI50", "setting": "[1]", "value": "23.9 µM (inactive)"}, {"measurement": "GI50", "setting": "[2]", "value": "19.4 µM (inactive)"}, {"measurement": "GI50", "setting": "[3]", "value": "16.6 µM (inactive)"}, {"measurement": "GI50", "setting": "[4]", "value": "21.4 µM (inactive)"}, {"measurement": "GI50", "setting": "[5]", "value": "19.4 µM (inactive)"}, {"measurement": "GI50", "setting": "[6]", "value": "20.9 µM (inactive)"}, {"measurement": "GI50", "setting": "[7]", "value": "30.4 µM (inactive)"}, {"measurement": "GI50", "setting": "[8]", "value": "16.4 µM (inactive)"}, {"measurement": "GI50", "setting": "[9]", "value": "20.7 µM (inactive)"}, {"measurement": "GI50", "setting": "[10]", "value": "24 µM (inactive)"}, {"measurement": "GI50", "setting": "[11]", "value": "21.3 µM (inactive)"}, {"measurement": "GI50", "setting": "[12]", "value": "> 10 µM (inactive)"}, {"measurement": "GI50", "setting": "[13]", "value": "20.8 µM (inactive)"}, {"measurement": "GI50", "setting": "[14]", "value": "20.5 µM (inactive)"}, {"measurement": "GI50", "setting": "[15]", "value": "19 µM (inactive)"}, {"measurement": "GI50", "setting": "[16]", "value": "16.6 µM (inactive)"}, {"measurement": "GI50", "setting": "[17]", "value": "20.4 µM (inactive)"}, {"measurement": "GI50", "setting": "[18]", "value": "19.1 µM (inactive)"}, {"measurement": "GI50", "setting": "[19]", "value": "17.2 µM (inactive)"}, {"measurement": "GI50", "setting": "[20]", "value": "19.8 µM (inactive)"}, {"measurement": "GI50", "setting": "[21]", "value": "18.1 µM (inactive)"}, {"measurement": "GI50", "setting": "[22]", "value": "28.5 µM (inactive)"}, {"measurement": "GI50", "setting": "[23]", "value": 14.8, "unit": "µM"}, {"measurement": "GI50", "setting": "[24]", "value": "15.8 µM (inactive)"}, {"measurement": "GI50", "setting": "[25]", "value": "22.6 µM (inactive)"}, {"measurement": "GI50", "setting": "[26]", "value": "29.6 µM (inactive)"}, {"measurement": "GI50", "setting": "[27]", "value": "19.5 µM (inactive)"}, {"measurement": "GI50", "setting": "[28]", "value": "13.6 µM (inactive)"}, {"measurement": "GI50", "setting": "[29]", "value": "22.8 µM (inactive)"}, {"measurement": "GI50", "setting": "[30]", "value": "11.4 µM (inactive)"}, {"measurement": "GI50", "setting": "[31]", "value": "17.7 µM (inactive)"}, {"measurement": "GI50", "setting": "[32]", "value": "26.9 µM (inactive)"}, {"measurement": "GI50", "setting": "[33]", "value": "22.8 µM (inactive)"}, {"measurement": "GI50", "setting": "[34]", "value": "24.1 µM (inactive)"}, {"measurement": "GI50", "setting": "[35]", "value": "12.4 µM (inactive)"}, {"measurement": "GI50", "setting": "[36]", "value": "17.6 µM (inactive)"}, {"measurement": "GI50", "setting": "[37]", "value": "16.3 µM (inactive)"}, {"measurement": "GI50", "setting": "[38]", "value": "15.2 µM (inactive)"}, {"measurement": "GI50", "setting": "[39]", "value": "28.7 µM (inactive)"}, {"measurement": "GI50", "setting": "[40]", "value": "20.5 µM (inactive)"}, {"measurement": "GI50", "setting": "[41]", "value": "13.7 µM (inactive)"}, {"measurement": "GI50", "setting": "[42]", "value": "22.3 µM (inactive)"}, {"measurement": "GI50", "setting": "[43]", "value": "21.5 µM (inactive)"}, {"measurement": "GI50", "setting": "[44]", "value": "22.6 µM (inactive)"}, {"measurement": "GI50", "setting": "[45]", "value": "22.5 µM (inactive)"}]}
{"smiles": "COC(=O)Cc1cccc2c(=O)c(S(=O)(=O)NC(=O)Nc3ccc(Cl)cc3)c(-c3ccccc3)oc12", "values": [{"measurement": "GI50", "setting": "[1]", "value": "4.3 µM (inactive)"}, {"measurement": "GI50", "setting": "[2]", "value": "34.4 µM (inactive)"}, {"measurement": "GI50", "setting": "[3]", "value": "34.6 µM (inactive)"}, {"measurement": "GI50", "setting": "[46]", "value": "> 100 µM (inactive)"}, {"measurement": "GI50", "setting": "[4]", "value": "17.1 µM (inactive)"}, {"measurement": "GI50", "setting": "[5]", "value": "13.9 µM (inactive)"}, {"measurement": "GI50", "setting": "[47]", "value": "11.3 µM (inactive)"}, {"measurement": "GI50", "setting": "[6]", "value": "54.6 µM (inactive)"}, {"measurement": "GI50", "setting": "[7]", "value": "> 100 µM (inactive)"}, {"measurement": "GI50", "setting": "[8]", "value": "57 µM (inactive)"}, {"measurement": "GI50", "setting": "[9]", "value": "> 100 µM (inactive)"}, {"measurement": "GI50", "setting": "[10]", "value": "44.6 µM (inactive)"}, {"measurement": "GI50", "setting": "[11]", "value": "32.7 µM (inactive)"}, {"measurement": "GI50", "setting": "[12]", "value": "16.3 µM (inactive)"}, {"measurement": "GI50", "setting": "[13]", "value": "> 100 µM (inactive)"}, {"measurement": "GI50", "setting": "[14]", "value": "47.8 µM (inactive)"}, {"measurement": "GI50", "setting": "[15]", "value": "> 100 µM (inactive)"}, {"measurement": "GI50", "setting": "[16]", "value": "> 100 µM (inactive)"}, {"measurement": "GI50", "setting": "[17]", "value": "> 100 µM (inactive)"}, {"measurement": "GI50", "setting": "[18]", "value": "87.5 µM (inactive)"}, {"measurement": "GI50", "setting": "[19]", "value": "13.5 µM (inactive)"}, {"measurement": "GI50", "setting": "[20]", "value": "> 100 µM (inactive)"}, {"measurement": "GI50", "setting": "[21]", "value": "36.9 µM (inactive)"}, {"measurement": "GI50", "setting": "[22]", "value": "> 100 µM (inactive)"}, {"measurement": "GI50", "setting": "[23]", "value": 8.75, "unit": "µM"}, {"measurement": "GI50", "setting": "[24]", "value": "25.8 µM (inactive)"}, {"measurement": "GI50", "setting": "[48]", "value": "13.5 µM (inactive)"}, {"measurement": "GI50", "setting": "[26]", "value": "> 100 µM (inactive)"}, {"measurement": "GI50", "setting": "[27]", "value": "12.2 µM (inactive)"}, {"measurement": "GI50", "setting": "[28]", "value": "29.6 µM (inactive)"}, {"measurement": "GI50", "setting": "[29]", "value": "69.3 µM (inactive)"}, {"measurement": "GI50", "setting": "[49]", "value": "67.9 µM (inactive)"}, {"measurement": "GI50", "setting": "[50]", "value": "> 100 µM (inactive)"}, {"measurement": "GI50", "setting": "[51]", "value": "16.4 µM (inactive)"}, {"measurement": "GI50", "setting": "[32]", "value": "34.4 µM (inactive)"}, {"measurement": "GI50", "setting": "[52]", "value": "> 100 µM (inactive)"}, {"measurement": "GI50", "setting": "[53]", "value": "79.8 µM (inactive)"}, {"measurement": "GI50", "setting": "[33]", "value": "74.5 µM (inactive)"}, {"measurement": "GI50", "setting": "[34]", "value": "55.6 µM (inactive)"}, {"measurement": "GI50", "setting": "[35]", "value": "36.6 µM (inactive)"}, {"measurement": "GI50", "setting": "[36]", "value": "33.3 µM (inactive)"}, {"measurement": "GI50", "setting": "[37]", "value": "30.2 µM (inactive)"}, {"measurement": "GI50", "setting": "[39]", "value": "15.9 µM (inactive)"}, {"measurement": "GI50", "setting": "[54]", "value": "58.5 µM (inactive)"}, {"measurement": "GI50", "setting": "[55]", "value": "73.5 µM (inactive)"}, {"measurement": "GI50", "setting": "[40]", "value": "38.5 µM (inactive)"}, {"measurement": "GI50", "setting": "[41]", "value": "29.2 µM (inactive)"}, {"measurement": "GI50", "setting": "[56]", "value": "24.3 µM (inactive)"}, {"measurement": "GI50", "setting": "[42]", "value": "50.6 µM (inactive)"}, {"measurement": "GI50", "setting": "[43]", "value": "> 100 µM (inactive)"}, {"measurement": "GI50", "setting": "[44]", "value": "69.2 µM (inactive)"}, {"measurement": "GI50", "setting": "[57]", "value": "> 100 µM (inactive)"}]}
